Where “and” joins values, the source holds several entries; their conditions need not be identical. Equal values may be shown once.
How the values were obtained:
[1] = tested on: target gene Superoxide Dismutase 1 (SOD1); assay: Test Example 1: inhibitory activity of NM031 conjugated siRNA on SOD1 by lateral ventricular administration to mice (real-time PCR, ΔΔCt); type: in vivo, C57BL/6j mice; details: lateral ventricle, 200 μg per mouse, D5
From the text: In the context of the present disclosure, unless otherwise stated, Real-time PCR detection data in in vivo activity experiments involved in the present disclosure are all used for relative quantitative calculation of gene mRNA of interest in various test groups by a ΔΔCt method, and a calculation method is summarized as follows:
Taking the control group as reference, expression level of the gene mRNA of interest in the test group is normalized, and remaining expression level of the gene mRNA of interest in the […] is defined as 100%.
6-8 Week-old C57BL/6j mice were randomly grouped by body weight, 5 per group, 2 groups in total, i.e., PBS group (dosed with siRNA-free PBS solution) and RZ899008 group (dosed with siRNA RZ899008 (the sense strand with the NM031 conjugation at Position 4) prepared in Example 1). Mice in each group were anaesthetized by intraperitoneal injection of 5% chloral hydrate, and were immobilized with the cerebral stereotaxic apparatus after being anaesthetized. Head skin was cut, positioning coordinates of right lateral ventricle were found with the stereotaxic apparatus and position was marked on surface of skull, wherein the positioning coordinates of the lateral ventricle were as follows: in coordinate axes with Bregma point as an origin, ML (mediolateral, left and right of middle raphe, i.e., X-axis) value=1.2 mm, and AP (anteroposterior, bregma anterior and posterior, i.e., Y-axis) value=−0.58 mm, and DV (dorsoventral, down skull (cerebral dura mater) plane, i.e., Z-axis) value=2.2 mm. A dental electric drill was used to drill in the skull above a position of interest, and then sucked drug was injected into the lateral ventricle by a micro-dosing pump. An administration dose to each mouse in the RZ899008 group was 200 μg (dose being measured as siRNA, concentration of siRNA being 20 μg/μL, PBS buffer as a solvent), and a total injection volume was […]. PBS group was administered with the same volume of siRNA-free PBS solution. […] The day of administration was recorded as first day (D1), and the mice were sacrificed on the fifth day (D5). […]

SOD1 = assay: Test Example 2: inhibitory activity of NM031 conjugated siRNA on SOD1 by intrathecal administration to mice; type: in vivo, C57BL/6j mice; details: D9
Description: 6-8 Week-old C57BL/6j mice were randomly grouped into 4 groups by body weight. PBS group was dosed with siRNA-free PBS solution, RX899001 group was dosed with siRNA compound RX899001 without vector conjugation, RZ899001 group was dosed with siRNA RZ899001 (the sense strand with the Uhd conjugation at Position 4) prepared in Example 1, and RZ899008 was dosed with siRNA RZ899008 (the sense strand with the NM031 conjugation at Position 4) prepared in Example 1. Mices in each group were anesthetized with isoflurane. After anesthetization, lumbar region thereof was sprayed wet with 75% disinfecting alcohol. 10 μL (concentration […]) of siRNA drug containing PBS solvent was sucked with an insulin injection needle, the mouse lumbar region was pinched with the left-hand index finger and thumb, patella crest was propped against, and needle was held by the right hand. The needle was bent by forceps in advance, wherein the needle was first bent in the middle by 80° to 90°, then a front half part of the needle was bent in half, and the whole needle was bent in an are shape of about 60° to 90°. Mouse abdominal region was padded with an article with a thickness of about 2 cm. The needle was inserted from a joint of lumbar spines L5 and L6 of mice, and when inserting the needle, the hand was slightly inclined forwards to insert the needle. […] After completion of the injection, the needle was slowly withdrawn at uniform velocity. The administration dose to each mouse in RX899001 group, RZ899001 group and RZ899008 group was 800 μg, a total volume injected was 10 μL, and the PBS group was administered with the same volume of siRNA-free PBS solution. After the animals woke up, the animals were returned back to the animal feeding room and further fed. The day of administration was recorded as first day (D1), and the mice were sacrificed on ninth day (D9). Lumbar spine, thoracic spine and cerebellum were respectively taken and stored in the RNAlater.
RNA extraction: an appropriate amount of lumbar spine, thoracic spine and cerebellum samples were respectively taken out from the RNAlater, and smashed for 60 s in Tissuelyser type II full-automatic tissue homogenizer, and total RNAs of various tissue samples were extracted using the full-automatic nucleic acid extraction instrument and the nucleic acid extraction kit from Zhejiang Hanwei Science and Technology Co. Ltd. according to methods described in instructions. Reverse transcription reaction: 1 μg of the extracted total RNAs of various tissue samples were respectively taken, and configured into 20 μL of reverse transcription system according to a method described in kit instructions by using a reverse transcription kit (Reverse Transcription System, A3500) from Promega Corporation and selecting Oligo (dT)15 reverse transcription primers, and the reverse transcription reaction was completed. After the reaction was ended, 80 μL of RNase-Free water was added into the reverse transcription system to provide cDNA solution for Real-time PCR detection.
Real-time PCR detection: 20 μL of Real-time PCR reaction system per PCR detection well was configured according to a method described in kit instructions using SYBR™ Select Master Mix (Catalog number: 4472908) reagent from ABI company. Each detection system contained 5 μL of cDNA template obtained from the above reverse transcription reaction, 10 μL of SYBR™ Select Master Mix, 0.5 μL of 10 μM upstream primers, 0.5 μL of 10 μM downstream primers (see TABLE 5 for primer information), and 4 μL of RNase-Free H2O. The configured reaction system was subjected to Real-time PCR amplification on ABI StepOnePlus PCR instrument by a three-step method, wherein an amplification procedure was pre-denaturation at 95° C. for 10 min, then denaturation at 95° C. for 30 s, annealing at 60° C. for 30 s, and extension at 72° C. for 30 s; and processes of denaturation, annealing, and extension were repeated for 40 cycles. […]

RZ899008: siRNA, the sense strand with the NM031 conjugation at Position 4; SEQ ID NO: 3 / 2 (sense UUUNAAUCCUCACUCUAAA; antisense UUUAGAGUGAGGAUUAAAAUG; NM031 conjugate at sense position 4; modified_base 1..2 OTHER; 2'-methoxy and 5'-thiophosphate modified nucleotides; modified_base 3 OTHER; 2'-methoxy modified nucleotide; modified_base 4 OTHER; n is the synthetic nucleotide analog NM031 as described in the disclosure (e.g., NM031-1 ((1-[(2R,3R,4S,5R)-5-{[bis(4-methoxyphenyl)(phenyl)methoxy]methyl}-3,4-dihydroxyoxolan-2-yl]-3H-pyrimidin-2,4-dione)).; modified_base 5..6 OTHER; 2'-meth; modified_base 1 OTHER; 2'-methoxy and 5'-thiophosphate modified nucleotide; modified_base 2 OTHER; 2'-fluoro and 5'-thiophosphate modified nucleotide; …)
Hippocampus Mean value of inhibition rate % ([1]; administration-side hippocampus): 82.94%
Parietal cortex Mean value of inhibition rate % ([1]; administration-side parietal cortex): 73.57%
Cerebellum Mean value of inhibition rate % ([1]; cerebellum): 40.08%
Cerebellum Mean value of inhibition rate % (SOD1; cerebellum, intrathecal, 800 μg per mouse): 67.72%
activity compared with control molecule RZ899001 and molecule RX899001 without vector conjugation (SOD1; lumbar spine, thoracic spine and cerebellum, intrathecal 800 μg per mouse): superior
Lumbar spine Mean value of inhibition rate % (SOD1; lumbar spine, intrathecal, 800 μg per mouse): 80.09% and 78.99%
Thoracic spine Mean value of inhibition rate % (SOD1; thoracic spine, intrathecal, 800 μg per mouse): 78.99% and 80.09%

— patent US20260132165A1, “MODIFIED NUCLEOSIDE ANALOGUE AND USE THEREOF, AND NUCLEOSIDE ANALOGUE-CONTAINING DOUBLE-STRANDED OLIGONUCLEOTIDE AND USE THEREOF” (RIGERNA THERAPEUTICS (BEIJING) CO., LTD., priority 2023, published 2026)
